From the OligoGym collection
Oligonucleotides are given in HELM: sugar(base)linkage, 5' to 3'; d 2'-deoxyribose, r ribose, m 2'-O-methylribose, p phosphate. ss, as = sense and antisense strand

molecular target: Mmp7 (rat); test: reporter assay of Huesken 2005; conditions: siRNA
Further: test concentration or dose not given here.

Question: With “RNA1{r(G)p.r(G)p.r(U)p.r(G)p.r(A)p.r(G)p.r(G)p.r(A)p.r(C)p.r(U)p.r(C)p.r(A)p.r(G)p.r(G)p.r(C)p.r(G)p.r(U)p.r(G)p.r(A)p.d(T)p.d(T)}|RNA2{r(U)p.r(C)p.r(A)p.r(C)p.r(G)p.r(C)p.r(C)p.r(U)p.r(G)p.r(A)p.r(G)p.r(U)p.r(C)p.r(C)p.r(U)p.r(C)p.r(A)p.r(C)p.r(C)p.d(A)p.d(T)}$$$RNA1{StrandType:ss}|RNA2{StrandType:as}$” as the substance, how does the normalised inhibition (eCFP-eYFP dual reporter) read?
Answer: The normalised inhibition (eCFP-eYFP dual reporter) was 94.6%.

Question: “RNA1{r(G)p.r(C)p.r(C)p.r(A)p.r(G)p.r(A)p.r(U)p.r(G)p.r(U)p.r(U)p.r(G)p.r(C)p.r(A)p.r(G)p.r(A)p.r(A)p.r(U)p.r(U)p.r(C)p.d(T)p.d(T)}|RNA2{r(G)p.r(A)p.r(A)p.r(U)p.r(U)p.r(C)p.r(U)p.r(G)p.r(C)p.r(A)p.r(A)p.r(C)p.r(A)p.r(U)p.r(C)p.r(U)p.r(G)p.r(G)p.r(C)p.d(A)p.d(C)}$$$RNA1{StrandType:ss}|RNA2{StrandType:as}$” was tested. Which normalised inhibition (eCFP-eYFP dual reporter) did it give?
Answer: The normalised inhibition (eCFP-eYFP dual reporter) was 100%.

Question: “RNA1{r(A)p.r(A)p.r(G)p.r(C)p.r(C)p.r(C)p.r(A)p.r(G)p.r(G)p.r(U)p.r(G)p.r(U)p.r(G)p.r(G)p.r(A)p.r(G)p.r(U)p.r(G)p.r(C)p.d(T)p.d(T)}|RNA2{r(G)p.r(C)p.r(A)p.r(C)p.r(U)p.r(C)p.r(C)p.r(A)p.r(C)p.r(A)p.r(C)p.r(C)p.r(U)p.r(G)p.r(G)p.r(G)p.r(C)p.r(U)p.r(U)p.d(C)p.d(T)}$$$RNA1{StrandType:ss}|RNA2{StrandType:as}$” was tested. Which normalised inhibition (eCFP-eYFP dual reporter) did it give?
Answer: Its normalised inhibition (eCFP-eYFP dual reporter) is 47.5%.

Question: With “RNA1{r(C)p.r(A)p.r(A)p.r(A)p.r(C)p.r(A)p.r(G)p.r(U)p.r(C)p.r(C)p.r(U)p.r(A)p.r(A)p.r(G)p.r(U)p.r(G)p.r(G)p.r(C)p.r(A)p.d(T)p.d(T)}|RNA2{r(U)p.r(G)p.r(C)p.r(C)p.r(A)p.r(C)p.r(U)p.r(U)p.r(A)p.r(G)p.r(G)p.r(A)p.r(C)p.r(U)p.r(G)p.r(U)p.r(U)p.r(U)p.r(G)p.d(G)p.d(C)}$$$RNA1{StrandType:ss}|RNA2{StrandType:as}$” as the substance, how does the normalised inhibition (eCFP-eYFP dual reporter) read?
Answer: Its normalised inhibition (eCFP-eYFP dual reporter) is 81.2%.

Question: For “RNA1{r(A)p.r(A)p.r(C)p.r(U)p.r(U)p.r(C)p.r(C)p.r(C)p.r(A)p.r(U)p.r(U)p.r(U)p.r(G)p.r(A)p.r(U)p.r(G)p.r(G)p.r(G)p.r(C)p.d(T)p.d(T)}|RNA2{r(G)p.r(C)p.r(C)p.r(C)p.r(A)p.r(U)p.r(C)p.r(A)p.r(A)p.r(A)p.r(U)p.r(G)p.r(G)p.r(G)p.r(A)p.r(A)p.r(G)p.r(U)p.r(U)p.d(G)p.d(T)}$$$RNA1{StrandType:ss}|RNA2{StrandType:as}$”, which normalised inhibition (eCFP-eYFP dual reporter) is on record?
Answer: The normalised inhibition (eCFP-eYFP dual reporter) was 0.2%.

Question: Which normalised inhibition (eCFP-eYFP dual reporter) does the source give for “RNA1{r(U)p.r(G)p.r(A)p.r(G)p.r(G)p.r(G)p.r(A)p.r(A)p.r(A)p.r(U)p.r(G)p.r(C)p.r(A)p.r(G)p.r(A)p.r(A)p.r(G)p.r(U)p.r(U)p.d(T)p.d(T)}|RNA2{r(A)p.r(A)p.r(C)p.r(U)p.r(U)p.r(C)p.r(U)p.r(G)p.r(C)p.r(A)p.r(U)p.r(U)p.r(U)p.r(C)p.r(C)p.r(C)p.r(U)p.r(C)p.r(A)p.d(G)p.d(T)}$$$RNA1{StrandType:ss}|RNA2{StrandType:as}$” here?
Answer: The normalised inhibition (eCFP-eYFP dual reporter) was 104%.

Question: With “RNA1{r(A)p.r(C)p.r(U)p.r(C)p.r(U)p.r(C)p.r(U)p.r(G)p.r(G)p.r(G)p.r(U)p.r(C)p.r(U)p.r(G)p.r(G)p.r(G)p.r(U)p.r(C)p.r(A)p.d(T)p.d(T)}|RNA2{r(U)p.r(G)p.r(A)p.r(C)p.r(C)p.r(C)p.r(A)p.r(G)p.r(A)p.r(C)p.r(C)p.r(C)p.r(A)p.r(G)p.r(A)p.r(G)p.r(A)p.r(G)p.r(U)p.d(G)p.d(G)}$$$RNA1{StrandType:ss}|RNA2{StrandType:as}$” as the substance, how does the normalised inhibition (eCFP-eYFP dual reporter) read?
Answer: Its normalised inhibition (eCFP-eYFP dual reporter) is 61.8%.

Question: How did the normalised inhibition (eCFP-eYFP dual reporter) turn out when “RNA1{r(U)p.r(G)p.r(G)p.r(U)p.r(G)p.r(A)p.r(G)p.r(G)p.r(A)p.r(C)p.r(U)p.r(C)p.r(A)p.r(G)p.r(G)p.r(C)p.r(G)p.r(U)p.r(G)p.d(T)p.d(T)}|RNA2{r(C)p.r(A)p.r(C)p.r(G)p.r(C)p.r(C)p.r(U)p.r(G)p.r(A)p.r(G)p.r(U)p.r(C)p.r(C)p.r(U)p.r(C)p.r(A)p.r(C)p.r(C)p.r(A)p.d(T)p.d(C)}$$$RNA1{StrandType:ss}|RNA2{StrandType:as}$” was run?
Answer: Its normalised inhibition (eCFP-eYFP dual reporter) is 69.8%.

Question: How did the normalised inhibition (eCFP-eYFP dual reporter) turn out when “RNA1{r(G)p.r(G)p.r(G)p.r(A)p.r(G)p.r(A)p.r(U)p.r(C)p.r(A)p.r(C)p.r(G)p.r(G)p.r(A)p.r(G)p.r(A)p.r(C)p.r(A)p.r(A)p.r(C)p.d(T)p.d(T)}|RNA2{r(G)p.r(U)p.r(U)p.r(G)p.r(U)p.r(C)p.r(U)p.r(C)p.r(C)p.r(G)p.r(U)p.r(G)p.r(A)p.r(U)p.r(C)p.r(U)p.r(C)p.r(C)p.r(C)p.d(C)p.d(T)}$$$RNA1{StrandType:ss}|RNA2{StrandType:as}$” was run?
Answer: Its normalised inhibition (eCFP-eYFP dual reporter) is 94.2%.

Question: How did the normalised inhibition (eCFP-eYFP dual reporter) turn out when “RNA1{r(G)p.r(C)p.r(C)p.r(A)p.r(G)p.r(G)p.r(C)p.r(C)p.r(U)p.r(C)p.r(G)p.r(G)p.r(C)p.r(G)p.r(G)p.r(A)p.r(G)p.r(A)p.r(U)p.d(T)p.d(T)}|RNA2{r(A)p.r(U)p.r(C)p.r(U)p.r(C)p.r(C)p.r(G)p.r(C)p.r(C)p.r(G)p.r(A)p.r(G)p.r(G)p.r(C)p.r(C)p.r(U)p.r(G)p.r(G)p.r(C)p.d(C)p.d(C)}$$$RNA1{StrandType:ss}|RNA2{StrandType:as}$” was run?
Answer: Its normalised inhibition (eCFP-eYFP dual reporter) is 36.1%.

Question: How did the normalised inhibition (eCFP-eYFP dual reporter) turn out when “RNA1{r(U)p.r(U)p.r(C)p.r(A)p.r(G)p.r(A)p.r(A)p.r(G)p.r(A)p.r(C)p.r(U)p.r(U)p.r(C)p.r(A)p.r(G)p.r(U)p.r(C)p.r(U)p.r(U)p.d(T)p.d(T)}|RNA2{r(A)p.r(A)p.r(G)p.r(A)p.r(C)p.r(U)p.r(G)p.r(A)p.r(A)p.r(G)p.r(U)p.r(C)p.r(U)p.r(U)p.r(C)p.r(U)p.r(G)p.r(A)p.r(A)p.d(T)p.d(G)}$$$RNA1{StrandType:ss}|RNA2{StrandType:as}$” was run?
Answer: Its normalised inhibition (eCFP-eYFP dual reporter) is 92.5%.

Question: Which normalised inhibition (eCFP-eYFP dual reporter) does the source give for “RNA1{r(G)p.r(G)p.r(G)p.r(C)p.r(C)p.r(A)p.r(G)p.r(G)p.r(A)p.r(A)p.r(A)p.r(C)p.r(A)p.r(C)p.r(U)p.r(C)p.r(U)p.r(A)p.r(G)p.d(T)p.d(T)}|RNA2{r(C)p.r(U)p.r(A)p.r(G)p.r(A)p.r(G)p.r(U)p.r(G)p.r(U)p.r(U)p.r(U)p.r(C)p.r(C)p.r(U)p.r(G)p.r(G)p.r(C)p.r(C)p.r(C)p.d(A)p.d(T)}$$$RNA1{StrandType:ss}|RNA2{StrandType:as}$” here?
Answer: Its normalised inhibition (eCFP-eYFP dual reporter) is 83.5%.

Question: With “RNA1{r(G)p.r(C)p.r(A)p.r(G)p.r(A)p.r(A)p.r(U)p.r(U)p.r(C)p.r(U)p.r(C)p.r(A)p.r(C)p.r(U)p.r(A)p.r(A)p.r(U)p.r(G)p.r(C)p.d(T)p.d(T)}|RNA2{r(G)p.r(C)p.r(A)p.r(U)p.r(U)p.r(A)p.r(G)p.r(U)p.r(G)p.r(A)p.r(G)p.r(A)p.r(A)p.r(U)p.r(U)p.r(C)p.r(U)p.r(G)p.r(C)p.d(A)p.d(A)}$$$RNA1{StrandType:ss}|RNA2{StrandType:as}$” as the substance, how does the normalised inhibition (eCFP-eYFP dual reporter) read?
Answer: Its normalised inhibition (eCFP-eYFP dual reporter) is 94.3%.

Question: Which normalised inhibition (eCFP-eYFP dual reporter) does the source give for “RNA1{r(U)p.r(C)p.r(A)p.r(C)p.r(G)p.r(A)p.r(C)p.r(U)p.r(C)p.r(U)p.r(A)p.r(A)p.r(A)p.r(A)p.r(C)p.r(A)p.r(A)p.r(A)p.r(G)p.d(T)p.d(T)}|RNA2{r(C)p.r(U)p.r(U)p.r(U)p.r(G)p.r(U)p.r(U)p.r(U)p.r(U)p.r(A)p.r(G)p.r(A)p.r(G)p.r(U)p.r(C)p.r(G)p.r(U)p.r(G)p.r(A)p.d(A)p.d(G)}$$$RNA1{StrandType:ss}|RNA2{StrandType:as}$” here?
Answer: The normalised inhibition (eCFP-eYFP dual reporter) was 108%.

Question: How did the normalised inhibition (eCFP-eYFP dual reporter) turn out when “RNA1{r(A)p.r(A)p.r(A)p.r(U)p.r(U)p.r(U)p.r(U)p.r(A)p.r(C)p.r(C)p.r(U)p.r(U)p.r(C)p.r(A)p.r(C)p.r(G)p.r(A)p.r(C)p.r(U)p.d(T)p.d(T)}|RNA2{r(A)p.r(G)p.r(U)p.r(C)p.r(G)p.r(U)p.r(G)p.r(A)p.r(A)p.r(G)p.r(G)p.r(U)p.r(A)p.r(A)p.r(A)p.r(A)p.r(U)p.r(U)p.r(U)p.d(C)p.d(C)}$$$RNA1{StrandType:ss}|RNA2{StrandType:as}$” was run?
Answer: The normalised inhibition (eCFP-eYFP dual reporter) was 74.4%.

Question: With “RNA1{r(G)p.r(A)p.r(U)p.r(G)p.r(U)p.r(U)p.r(G)p.r(C)p.r(A)p.r(G)p.r(A)p.r(A)p.r(U)p.r(U)p.r(C)p.r(U)p.r(C)p.r(A)p.r(C)p.d(T)p.d(T)}|RNA2{r(G)p.r(U)p.r(G)p.r(A)p.r(G)p.r(A)p.r(A)p.r(U)p.r(U)p.r(C)p.r(U)p.r(G)p.r(C)p.r(A)p.r(A)p.r(C)p.r(A)p.r(U)p.r(C)p.d(T)p.d(G)}$$$RNA1{StrandType:ss}|RNA2{StrandType:as}$” as the substance, how does the normalised inhibition (eCFP-eYFP dual reporter) read?
Answer: Its normalised inhibition (eCFP-eYFP dual reporter) is 119%.

Question: “RNA1{r(G)p.r(G)p.r(A)p.r(G)p.r(A)p.r(C)p.r(U)p.r(G)p.r(G)p.r(A)p.r(A)p.r(A)p.r(G)p.r(C)p.r(U)p.r(G)p.r(U)p.r(C)p.r(C)p.d(T)p.d(T)}|RNA2{r(G)p.r(G)p.r(A)p.r(C)p.r(A)p.r(G)p.r(C)p.r(U)p.r(U)p.r(U)p.r(C)p.r(C)p.r(A)p.r(G)p.r(U)p.r(C)p.r(U)p.r(C)p.r(C)p.d(G)p.d(G)}$$$RNA1{StrandType:ss}|RNA2{StrandType:as}$” was tested. Which normalised inhibition (eCFP-eYFP dual reporter) did it give?
Answer: Its normalised inhibition (eCFP-eYFP dual reporter) is 88.7%.

Question: How did the normalised inhibition (eCFP-eYFP dual reporter) turn out when “RNA1{r(G)p.r(C)p.r(A)p.r(A)p.r(G)p.r(G)p.r(G)p.r(G)p.r(A)p.r(G)p.r(A)p.r(U)p.r(C)p.r(A)p.r(C)p.r(G)p.r(G)p.r(A)p.r(G)p.d(T)p.d(T)}|RNA2{r(C)p.r(U)p.r(C)p.r(C)p.r(G)p.r(U)p.r(G)p.r(A)p.r(U)p.r(C)p.r(U)p.r(C)p.r(C)p.r(C)p.r(C)p.r(U)p.r(U)p.r(G)p.r(C)p.d(G)p.d(A)}$$$RNA1{StrandType:ss}|RNA2{StrandType:as}$” was run?
Answer: Its normalised inhibition (eCFP-eYFP dual reporter) is 90.5%.

Question: With “RNA1{r(A)p.r(C)p.r(A)p.r(G)p.r(U)p.r(C)p.r(C)p.r(U)p.r(A)p.r(A)p.r(G)p.r(U)p.r(G)p.r(G)p.r(C)p.r(A)p.r(U)p.r(U)p.r(C)p.d(T)p.d(T)}|RNA2{r(G)p.r(A)p.r(A)p.r(U)p.r(G)p.r(C)p.r(C)p.r(A)p.r(C)p.r(U)p.r(U)p.r(A)p.r(G)p.r(G)p.r(A)p.r(C)p.r(U)p.r(G)p.r(U)p.d(T)p.d(T)}$$$RNA1{StrandType:ss}|RNA2{StrandType:as}$” as the substance, how does the normalised inhibition (eCFP-eYFP dual reporter) read?
Answer: The normalised inhibition (eCFP-eYFP dual reporter) was 65.7%.

Question: “RNA1{r(A)p.r(C)p.r(U)p.r(C)p.r(U)p.r(U)p.r(C)p.r(U)p.r(G)p.r(U)p.r(U)p.r(C)p.r(C)p.r(C)p.r(A)p.r(G)p.r(U)p.r(U)p.r(C)p.d(T)p.d(T)}|RNA2{r(G)p.r(A)p.r(A)p.r(C)p.r(U)p.r(G)p.r(G)p.r(G)p.r(A)p.r(A)p.r(C)p.r(A)p.r(G)p.r(A)p.r(A)p.r(G)p.r(A)p.r(G)p.r(U)p.d(G)p.d(A)}$$$RNA1{StrandType:ss}|RNA2{StrandType:as}$” was tested. Which normalised inhibition (eCFP-eYFP dual reporter) did it give?
Answer: The normalised inhibition (eCFP-eYFP dual reporter) was 81.4%.
